Laboratory results published in US20100140166A1, “PROCESS FOR FERMENTIVE PREPARATION OF ALCOHOLS AND RECOVERY OF PRODUCT” (E.I. DU PONT DE NEMOURS AND COMPANY, priority 2008, published 2010).

Assays:
[1] = system: Saccharomyces cerevisiae (W1362 20A); assay: Glucose Uptake Index (GUI) of Saccharomyces cerevisiae culture in the presence of ionic liquid; format: cell-based; details: 5% (v/v) ionic liquid, YPD medium, 30° C., 16 hours after addition; GUI of control without ionic liquid 79.0 (Ex. 1-5) or 100 (Ex. 6-8)
[2] = Extraction of ethanol from an aqueous solution by ionic liquid (HPLC); format: physicochemical; details: 3 mL aqueous solution about 31 g/L ethanol, 5 vol % ionic liquid, overnight equilibration, control 655
Procedure: (§1) Ethanol and isobutanol concentration in the solution was measured using HPLC as described above following thorough mixing and overnight equilibration of the contents of the vial.

[3] = Extraction of isobutanol from an aqueous solution by ionic liquid (HPLC); format: physicochemical; details: 3 mL aqueous solution about 31 g/L isobutanol, 5 vol % ionic liquid, overnight equilibration, control 436
Procedure: as §1

SMILES	GUI of Sample (Glucose Utilization Index in the presence of ionic liquid phase) [1]	mM Ethanol (in solution after equilibration) ([2]; listed as [MeDMEEAP] [HFPS])	mM isobutanol (in solution after equilibration) ([3]; listed as [MeDMEEAP] [HFPS])	mM Ethanol (in solution after equilibration) ([2]; listed as [MeDMEEAP] [Tf2N])	mM isobutanol (in solution after equilibration) ([3]; listed as [MeDMEEAP] [Tf2N])	mM Ethanol (in solution after equilibration) [2]	mM isobutanol (in solution after equilibration) [3]
CCOCC[N+](C)(C)CCN1C(=O)CCC1C (stereo not shown) [Example 2, 1-(N,N,N-dimethyl(ethylethoxy)aminoethyl)-5-methyl-pyrrolidine-2-one hexafluoropropanesulfonate]	34.0	656 mM	422 mM				
CCOCC[N+](C)(C)CCN1C(=O)CCC1C (stereo not shown) [Example 3, 1-(N,N,N-dimethyl(ethylethoxy)aminoethyl)-5-methyl-pyrrolidine-2-one bis(trifluoromethane)sulfonamide]	80.4			637 mM	398 mM		
COCC[N+](C)(C)CCN1C(=O)CCC1C (stereo not shown) [Example 4, 1-(N,N,N-dimethyl(methylethoxy)aminoethyl)-5-methylpyrrolidin-2-one hexafluoropropanesulfonate]	21.9					645 mM	423 mM
CCC[N+](C)(C)CCN1C(=O)CCC1C.O=S(=O)([N-]S(=O)(=O)C(F)(F)F)C(F)(F)F (stereo not shown) [Example 6, 1-(N,N,N-dimethylpropylaminoethyl)-5-methyl pyrrolidone-2-one bis(trifluoromethane)sulfonamide]	100						387 mM
COCC[N+](C)(C)CCN1C(=O)CCC1C.O=S(=O)([N-]S(=O)(=O)C(F)(F)F)C(F)(F)F (stereo not shown) [Example 7, 1-(N,N,N-dimethyl(methylethoxy)aminoethyl)-5-methyl pyrrolidone-2-one bis(trifluoromethane)sulfonamide]	100					643 mM	389 mM
CC1CCC(=O)N1CC[N+](C)(C)CCO.O=S(=O)([N-]S(=O)(=O)C(F)(F)F)C(F)(F)F (stereo not shown) [Example 8, 1-(N,N,N-dimethyl(hydroxyethyl)aminoethyl)-5-methyl pyrrolidone-2-one bis(trifluoromethane)sulfonamide]	89.3						417 mM
